Measured values: patent publication US20230190743A1, “TREATMENT WITH ILEAL BILE ACID TRANSPORTER (IBAT) INHIBITORS FOR INCREASED EVENT-FREE SURVIVAL (EFS)” (Mirum Pharmaceuticals, Inc., priority 2021, published 2023)

Legend:
Type in all cases: in vivo, human
[1] = system: patients with PFIC due to BSEP deficiency (nontruncated BSEP mutation); experiment: INDIGO long-term study, sBA control after >4.5 years of MRX
Excerpt: Maralixibat (MRX) is an ileal bile acid transport (IBAT) inhibitor approved for the treatment of pruritus in patients with Alagille syndrome aged 1 year and older and under evaluation in patients with PFIC.

patients with ALGS = experiment: Predictors of 6-year EFS and TFS in maralixibat-treated patients from three long-term clinical trials
Procedure: MRX-treated ALGS patients from 3 long-term clinical trials were followed for development of clinically significant events (LTx, surgical biliary diversion [SBD], hepatic decompensation [ascites requiring therapy and variceal bleeding], and death) for up to 6 yrs. TFS (LTx and death only) was also assessed. Those who were on MRX 48 weeks from the first dose and had lab results at 48 weeks were included in this analysis. Variables considered in the model included: liver biochemistries, platelets, pruritus (as assessed by ItchRO(Obs) 0¬4 scale), total serum bile acids (sBA), and age. Goodness of fit was assessed using Harrell's concordance statistic (C-statistic). Cutoffs were determined via a grid search. P-values are from a log-rank test.
Patients (N=76) with ALGS aged 14-207 months with moderate-to-severe pruritus were included in this analysis. Maralixibat-treated patients with ALGS from three long-term clinical trials (ClinicalTrials.gov ID: NCT02047318; ClinicalTrials.gov ID: NCT02160782; ClinicalTrials.gov ID: NCT02117713) were followed for development of first clinically significant event (LT, surgical biliary diversion, hepatic decompensation [ascites requiring therapy and variceal bleeding], or death) for up to six years. TFS (LT and death only) was also assessed. Patients who were on maralixibat 48 weeks from the first dose and had lab results at 48 weeks were included in this analysis.
Variables considered in the model included: liver biochemistries, platelets, pruritus (as assessed by Itch-Reported Outcome [Observer] [ItchRO(Obs)] 0-4 scale), total sBA, and age at initiation. These were explored at baseline, week 48, and change from baseline to week 48. Goodness of fit was assessed using Harrell's concordance statistic (C-statistic). Variables with a value ≥0.7 (indicating a good model) were selected for further analysis. Cutoffs for each variable were determined via a grid search across the range of values. Statistical comparisons between the cutoff groups were calculated using a log-rank test.

[2] = system: patients with Alagille syndrome (ALGS); experiment: 6-year event-free survival analysis, maralixibat cohort versus GALA control group
Excerpt: Real-world evidence (RWE) analytics continue to advance natural history comparisons in rare diseases. GALA is the largest global clinical research database for […] syndrome (ALGS). Maralixibat (MRX) is an ileal bile acid transporter inhibitor being studied in ALGS. A pre-specified analysis plan applied novel analytical techniques to compare RWE to a MRX cohort with the aim to compare event-free survival (EFS) in patients with ALGS. GALA contains retrospective data for clinical parameters, biochemistries and outcomes. The MRX database comprises of 84 ALGS patients with up to 6 years of data. EFS was defined as the time to first event of hepatic decompensation (variceal bleeding, ascites requiring therapy), surgical biliary diversion, liver transplantation (LT), or death. GALA was filtered to align key MRX eligibility criteria. The index time was determined via maximum likelihood estimation. Balance among baseline (BL) variables was assessed. Selection of patients and index time was blinded to clinical outcomes. Sensitivity and subgroup analyses, and adjustments for covariates were applied. Missing outcomes data were censored at last contact.

[3] = patients with sBA control, to Week 237, p<0.05
[4] = Week 48 sBA <200 μmol/L, n = 56
[5] = Week 48 sBA ≥200 μmol/L, n = 18
[6] = Week 48 total bilirubin <6.5 mg/dL, n = 52
[7] = Week 48 total bilirubin ≥6.5 mg/dL, n = 24
[8] = age at initiation of maralixibat <36 months, n = 21
[9] = age at initiation of maralixibat ≥36 months, n = 55
[10] = change from baseline to week 48 ItchRO(Obs) >1 pt reduction, n = 46
[11] = change from baseline to week 48 ItchRO(Obs) ≤1 pt reduction, n = 30

SMILES: CCCCC1(CCCC)CS(=O)(=O)c2ccc(N(C)C)cc2[C@@H](c2ccc(OCc3ccc(C[N+]45CCN(CC4)CC5)cc3)cc2)[C@H]1O [maralixibat]
- listing for liver transplant ([1]; after >4.5 years of MRX, result in words): No ongoing patients were listed for liver transplant
- long-term safety and tolerability ([1]; most frequent TEAEs mild to moderate, result in words): safe and well tolerated
- patients who achieved sBA control and remained on-study as of Week 237 ([1]; of n=19 with nontruncated BSEP mutation, sBA threshold ≤100 μmol/L): 7 patients
- pruritus ([1]; p<0.001, result in words): improved significantly
- Growth (height z-score) ([1]; p<0.01, result in words): improved significantly
- native liver survival ([1]; patients who achieved control of sBA during MRX treatment): > 4.5 years
- mean sBA value ([1]; patients with sBA control, Week 237, vs. 299.6 μmol/L at baseline): 44.2 (38.8) μmol/L
- mean direct bilirubin value ([1]; patients with sBA control, Week 237, vs. 0.6 at BL): 0.1 mg/dL
- mean total bilirubin value ([1]; patients with sBA control, Week 237, vs. 0.8 at BL): 0.7 mg/dL
- mean ALT value ([1]; patients with sBA control, Week 237, vs. 57.9 at BL): 16.7 U/L
- mean AST value ([1]; patients with sBA control, Week 237, vs. 62.1 at BL): 26.7 U/L
- Mean (SE) sBA reduction [1, 3]: 234.4 (80.5) μmol/L
- Mean reduction in ALT [1, 3]: 41.1 (14.3) U/L
- Mean reduction in AST [1, 3]: 35.4 (11.5) U/L
- Mean reduction in direct bilirubin ([1]; patients with sBA control, to Week 237, p=0.13): 0.4 (0.2) mg/dL
- Mean reduction in total bilirubin ([1]; patients with sBA control, to Week 237, p=0.8): 0.1 (0.3) mg/dL
- bilirubin in those with abnormal bilirubin ([1]; result in words): normalized
- clinical event: LT (patients with ALGS; 76 patients): 10 n
- clinical event: death (patients with ALGS; 76 patients): 2 n
- clinical event: decompensation (patients with ALGS; 76 patients): 3 n
- clinical event: surgical biliary diversion (patients with ALGS; 76 patients): 1 n
- patients who experienced clinical events (patients with ALGS; 76 patients, up to six years): Sixteen
- 6-year EFS (patients with ALGS; [4]): 6-year EFS: 85%
- 6-year TFS (patients with ALGS; [4]): 6-year TFS: 90%
- 6-year EFS (patients with ALGS; [5]): 6-year EFS: 49%
- 6-year TFS (patients with ALGS; [5]): 6-year TFS: 49%
- 6-year EFS (patients with ALGS; [6]): 6-year EFS: 90%
- 6-year TFS (patients with ALGS; [6]): 6-year TFS: 94%
- 6-year EFS (patients with ALGS; [7]): 6-year EFS: 43%
- 6-year TFS (patients with ALGS; [7]): 6-year TFS: 42%
- 6-year EFS (patients with ALGS; [8]): 6-year EFS: 57%
- 6-year TFS (patients with ALGS; [8]): 6-year TFS: 57%
- 6-year EFS (patients with ALGS; [9]): 6-year EFS: 83%
- 6-year TFS (patients with ALGS; [9]): 6-year TFS: 87%
- 6-year EFS (patients with ALGS; [10]): 6-year EFS: 88%
- 6-year TFS (patients with ALGS; [10]): 6-year TFS: 93%
- 6-year EFS (patients with ALGS; [11]): 6-year EFS: 57%
- 6-year TFS (patients with ALGS; [11]): 6-year TFS: 57%
- 6-year EFS (%) (patients with ALGS; number of worse EFS predictor variables: 0): 89%
- 6-year EFS (%) (patients with ALGS; number of worse EFS predictor variables: 1): 89%
- 6-year EFS (%) (patients with ALGS; number of worse EFS predictor variables: 2): 86%
- 6-year EFS (%) (patients with ALGS; number of worse EFS predictor variables: 3): 29%
- 6-year EFS (%) (patients with ALGS; number of worse EFS predictor variables: 4): 33%
- rate of 6-year EFS (patients with ALGS; patients with ≤2 predictors of worse EFS after 48 weeks of treatment): 88%
- rate of 6-year EFS (patients with ALGS; patients with ≥3 predictors of worse EFS after 48 weeks of treatment): 31%
- crude 6-year EFS ([2]; MRX cohort, patients with ALGS (GALA control 50%)): 73%
- EFS hazard ratio (HR), MRX cohort vs GALA control ([2]; adjusted for age, sex, TB, ALT, 95% CI:0.189-0.491, p<0.0001): 0.305
